pIC50: −log10 of the molar value.

For orientation: pIC50 means the IC50 on a negative log10 scale, so that one unit is a factor of ten.

In this experiment the target is T1, human glucagon receptor (Homo sapiens, UniProt P47871).
T1 construct: expressed in transfected cells; host or cells: BHK (baby hamster kidney) cells
Description: Glucagon Binding Assay (III). To be noted: BHK cell membranes, WGA SPA beads, 125I-glucagon; read-out: Glu Bd Assay (III) IC50. The method, boiled down:
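Non-specific binding was set with 500 nM glucagon in this SPA-type binding assay using WGA beads. The receptor source was a membrane preparation, kept on ice or at 4 °C, from BHK cells transfected with the human receptor. Scintillation counts were taken after 4 hours of shaking and 8–48 hours of settling.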

T1 sequence (P47871 26-477): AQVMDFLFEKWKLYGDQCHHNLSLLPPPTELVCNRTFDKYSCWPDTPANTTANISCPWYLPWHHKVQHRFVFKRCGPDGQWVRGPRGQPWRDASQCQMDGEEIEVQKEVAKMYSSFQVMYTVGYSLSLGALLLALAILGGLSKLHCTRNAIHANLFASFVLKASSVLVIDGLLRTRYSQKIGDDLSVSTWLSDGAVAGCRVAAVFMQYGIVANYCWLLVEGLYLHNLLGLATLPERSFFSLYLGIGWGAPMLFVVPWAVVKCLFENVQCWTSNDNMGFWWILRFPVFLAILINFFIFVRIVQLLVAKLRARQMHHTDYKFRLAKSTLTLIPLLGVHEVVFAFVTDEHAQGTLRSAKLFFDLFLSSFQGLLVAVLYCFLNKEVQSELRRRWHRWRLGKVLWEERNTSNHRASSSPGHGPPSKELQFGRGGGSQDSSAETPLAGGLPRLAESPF

Regarding `CC(C)(C)C1CCC(N(Cc2ccc(C(=O)Nc3nn[nH]n3)cc2)C(=O)c2cc3cc(OC(F)(F)F)ccc3[nH]2)CC1` (stereo not shown) [Example 557, 5-Trifluoromethoxy-1H-indole-2-carboxylic acid (4-tert-butylcyclohexyl)-[4-(2H-tetrazol-5-ylcarbamoyl)benzyl]amide], the pIC50 is 6.58. The same measure for `O=C(Nc1nn[nH]n1)c1ccc(CN(C(=O)c2cc3cc(OC(F)(F)F)ccc3[nH]2)c2ccc(C3CCCCC3)cc2)cc1` [Example 558, 5-Trifluoromethoxy-1H-indole-2-carboxylic acid (4-cyclohexylphenyl)-[4-(2H-tetrazol-5-ylcarbamoyl)benzyl]amide]: 5.97.

Turning to `CC(C)(C)c1ccc(N(Cc2ccc(C(=O)Nc3nn[nH]n3)cc2)C(=O)c2cc3cc(OC(F)(F)F)ccc3[nH]2)cc1` [Example 559, 5-Trifluoromethoxy-1H-indole-2-carboxylic acid (4-tert-butylphenyl)-[4-(2H-tetrazol-5-ylcarbamoyl)benzyl]amide], the pIC50 is 5.96. In the case of `O=C(O)CCNC(=O)c1ccc(CN(C(=O)c2cc(-c3ccc(Cl)cc3)cs2)c2ccc(C3CCCCC3)cc2)cc1` [Example 560, 3-(4-{[[4-(4-Chlorophenyl)thiophene-2-carbonyl]-(4-cyclohexylphenyl)amino]methyl}benzoylamino)propionic acid], the pIC50 is 5.81. Regarding `O=C(O)CCNC(=O)c1ccc(CN(C(=O)c2cc3cc(Cl)ccc3o2)c2ccc(C3CCCCC3)cc2)cc1` [Example 561, 3-(4-{[(5-Chlorobenzofuran-2-carbonyl)-(4-cyclohexylphenyl)amino]methyl}benzoylamino)propionic acid], the pIC50 is 6.43. In the case of `CC(C)(C)C1CCC(N(Cc2ccc(C(=O)NCCC(=O)O)cc2)C(=O)c2cc3cc(Cl)ccc3o2)CC1` (stereo not shown) [Example 562, 3-(4-{[(4-tert-Butylcyclohexyl)-(5-chlorobenzofuran-2-carbonyl)amino]methyl}benzoylamino)propionic acid] it was 6.84; in that of `O=C(O)CCNC(=O)c1ccc(CN(CC(c2ccccc2)c2ccccc2)C(=O)c2cc3cc(Cl)ccc3o2)cc1` [Example 563, 3-(4-{[(5-Chlorobenzofuran-2-carbonyl)-(2,2-diphenylethyl)amino]methyl}benzoylamino)propionic acid], 6.39; in that of `CC(C)(C)C1CCC(N(Cc2ccc(C(=O)Nc3nn[nH]n3)cc2)C(=O)c2cc(-c3ccc(Cl)cc3)cs2)CC1` (stereo not shown) [Example 564, 4-(4-Chlorophenyl)thiophene-2-carboxylic acid (4-tert-butylcyclohexyl)-[4-(2H-tetrazol-5-ylcarbamoyl)benzyl]amide], 7.01. In the case of `O=C(Nc1nn[nH]n1)c1ccc(CN(C(=O)c2cc(-c3ccc(Cl)cc3)cs2)c2ccc(C3CCCCC3)cc2)cc1` [Example 565, 4-(4-Chlorophenyl)thiophene-2-carboxylic acid (4-cyclohexylphenyl)-[4-(2H-tetrazol-5-ylcarbamoyl)benzyl]amide] it was 6.02; in that of `O=C(Nc1nn[nH]n1)c1ccc(CN(CC(c2ccccc2)c2ccccc2)C(=O)c2cc(-c3ccc(Cl)cc3)cs2)cc1` [Example 566, 4-(4-Chlorophenyl)thiophene-2-carboxylic acid (2,2-diphenyl-ethyl)-[4-(2H-tetrazol-5-ylcarbamoyl)benzyl]amide], 6.07; in that of `O=C(Nc1nn[nH]n1)c1ccc(CN(C(=O)Nc2cccc(C(F)(F)F)c2)c2ccc(C3CCCCC3)cc2)cc1` [Example 567, 4-[1-(4-Cyclohexylphenyl)-3-(3-trifluoromethylphenyl)ureidomethyl]-N-(2H-tetrazol-5-yl)benzamide], 8.30. The same measure for `O=C(Nc1nn[nH]n1)c1ccc(CN(C(=O)Nc2ccc(OC(F)(F)F)c(CO)c2)c2ccc(C3CCCCC3)cc2)cc1` [Example 568]: 7.89; for `Cc1ccc(NC(=O)N(Cc2ccc(C(=O)NCCS(=O)(=O)O)cc2)c2ccc(C(C)(C)C)cc2)cc1S(C)(=O)=O` [Example 569, 2-{4-[1-(4-tert-Butylphenyl)-3-(3-methylsulfonyl-4-methylphenyl)ureidomethyl]-benzoylamino}ethanesulfonic acid]: 5.75. Regarding `CC(C)(C)[C@H]1CC[C@H](N(Cc2ccc(C(=O)Nc3nn[nH]n3)s2)C(=O)Nc2ccc(OC(F)(F)F)cc2)CC1` [Example 578, 5-[1-(trans-4-tert-Butylcyclohexyl)-3-(4-trifluoromethoxyphenyl)ureidomethyl]thiophene-2-carboxylic acid (2H-tetrazol-5-yl)amide], the pIC50 is 6.65. In the case of `N#Cc1ccc(NC(=O)N(Cc2ccc(C(=O)Nc3nn[nH]n3)cc2)c2ccc(C3=CCCCC3)cc2)cc1C(F)(F)F` [Example 599, 4-[3-(4-Cyano-3-trifluoromethylphenyl)-1-(4-cyclohex-1-enylphenyl)ureidomethyl]-N-(2H-tetrazol-5-yl)benzamide] it was 7.92; in that of `O=C(Nc1nn[nH]n1)c1ccc(CN(C(=O)Nc2ccc(F)c(C(F)(F)F)c2)c2ccc(C3CCCCC3)cc2)cc1` [Example 600, 4-[1-(4-Cyclohexylphenyl)-3-(4-fluoro-3-trifluoromethylihenyl)ureidomethyl]-N-(2H-tetrazol-5-yl)benzamide], 8.05. With `O=C(Nc1nn[nH]n1)c1ccc(CN(C(=O)Nc2ccc(Br)c(C(F)(F)F)c2)c2ccc(C3=CCCCC3)cc2)cc1` [Example 601, 4-[3-(4-Bromo-3-trifluoromethylphenyl)-1-(4-cyclohex-1-enylphenyl)ureidomethyl]-N-(2H-tetrazol-5-yl)benzamide], the pIC50 is 7.77. In the case of `COc1cc(NC(=O)N(Cc2ccc(C(=O)Nc3nn[nH]n3)cc2)C2CCC(C(C)(C)C)CC2)cc(C(F)(F)F)c1` (stereo not shown) [Example 602, 4-[1-(4-tert-Butylcyclohexyl)-3-(3-methoxy-5-trifluoromethylphenyl)ureidomethyl]-N-(2H-tetrazol-5-yl)benzamide] it was 7.59; in that of `CC(C)(C)[C@H]1CC[C@@H](N(Cc2ccc(C(=O)Nc3nn[nH]n3)cc2)C(=O)Nc2cc(C(F)(F)F)cc(C(F)(F)F)c2)CC1` [Example 603, 4-[3-(3,5-Bis(trifluoromethyl)phenyl)-1-(cis-4-tert-butylcyclohexyl)ureidomethyl]-N-(2H-tetrazol-5-yl)benzamide], 7.59. In the case of `O=C(Nc1nn[nH]n1)c1ccc(CN(C(=O)Nc2ccc(OC(F)(F)F)cc2)C2CCC(C3CC3)CC2)cc1` (stereo not shown) [Example 604, 4-[1-(4-Cyclopropylcyclohexyl)-3-(4-trifluoromethoxyphenyl)ureidomethyl]-N-(2H-tetrazol-5-yl)benzamide] it was 6.65. Turning to `O=C(O)CCNC(=O)c1ccc(CN(C(=O)Nc2cc(C(F)(F)F)cc(C(F)(F)F)c2)C2CCC3(CCCCC3)CC2)cc1` [Example 614, 3-{4-[3-(3,5-Bis(trifluoromethyl)phenyl)-1-spiro[5.5]undec-3-ylureidomethyl]benzoylamino}propionic acid], the pIC50 is 6.89. `CC(C)(C)c1ccc(N(Cc2ccc(C(=O)Nc3nn[nH]n3)cc2)C(=O)Nc2nc3ccc(OC(F)(F)F)cc3s2)cc1` [Example 615, 4-[1-(4-tert-Butylphenyl)-3-(6-trifluoromethoxy-benzothiazol-2-yl)ureidomethyl]-N-(2H-tetra-5-yl)benzamide]: the pIC50 is 6.98.
